Results on five compounds are retold here after patent publication US12576099B2, “Ribose-modified cap analog and use thereof” (Beijing Youcare Kechuang Pharmaceutical Technology Co., Ltd., priority 2024, dated 2026).

One data set deals with T1, DCP2 enzyme (Schizosaccharomyces pombe, UniProt O13828).
T1 construct: purchased New England Biolabs
T1 sequence (O13828 1-243 limits assumed): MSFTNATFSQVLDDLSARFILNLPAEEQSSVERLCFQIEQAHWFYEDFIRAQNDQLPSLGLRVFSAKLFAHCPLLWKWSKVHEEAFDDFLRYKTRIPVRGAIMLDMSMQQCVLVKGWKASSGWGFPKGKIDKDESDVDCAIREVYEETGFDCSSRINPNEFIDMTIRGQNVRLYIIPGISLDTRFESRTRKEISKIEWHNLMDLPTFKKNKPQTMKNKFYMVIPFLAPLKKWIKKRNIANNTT
T1 sequence (Q9P805 1-127 partner): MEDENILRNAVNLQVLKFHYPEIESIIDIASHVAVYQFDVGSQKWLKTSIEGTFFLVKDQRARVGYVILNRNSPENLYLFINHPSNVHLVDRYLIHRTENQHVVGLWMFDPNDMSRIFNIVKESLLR
T1 sequence (Q10108 155-180 partner limits assumed): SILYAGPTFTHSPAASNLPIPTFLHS
The data set is described as follows: Decapping enzyme stability test. It counts as biochemical. The settings on record: for Decapping rate (%) of DCP2 enzyme: 50 U mRNA decapping enzyme, 37° C., 45 minutes. The method, then: […] of RNA purified by polyacrylamide gel electrophoresis (PAGE) was subjected to an enzymatic reaction with 50 U of mRNA decapping enzyme (New England Biolabs) and 1×MDE buffer at 37° C. for 45 minutes. The enzymatic reactants were subjected to PAGE and stained with SYBR Green II (Lonza), followed by observation of the post-electrophoresis gel image on a Typhoon FLA 7000 (GE Healthcare) instrument. The electrophoresis band intensity ratio of RNA capping to RNA decapping was counted using ImageQuant (GE Healthcare) software, and the decapping rate of the decapping enzyme was calculated.

The nature of data set [1]: Characterization of lipid nanoparticles encapsulating Fluc-mRNA prepared from different cap structures. The format is physicochemical. The settings on record: for Particle size: LNP (YK-009/DSPC/cholesterol/DMG-PEG2000) with Fluc-mRNA transcribed using the named cap analog; for PDI: LNP with Fluc-mRNA transcribed using the named cap analog; for EE: encapsulation efficiency of LNP with Fluc-mRNA transcribed using the named cap analog. The method, then:
Cationic lipid YK-009 (Beijing Youcare Kechuang Pharmaceutical Technology Co., Ltd.), DSPC (AVT (Shanghai) Pharmaceutical Technology Co., Ltd.), cholesterol (AVT (Shanghai) Pharmaceutical Technology Co., Ltd.), and DMG-PEG2000 were dissolved in ethanol at a molar ratio of 49:10:39.5:1.5, and the mRNA was diluted in 50 mM citrate buffer (pH=4). The ethanol lipid solution was mixed with the Fluc-mRNA aqueous solution prepared from different cap structures at a volume ratio of 1:3 using a microfluidic device at a flow rate of 10 mL/min to prepare LNPs at a weight ratio of total lipid to mRNA of approximately 15:1.
The resulting liposomes were diluted to 10-fold volume with PBS, and then ultrafiltered with a 300 KDa ultrafiltration tube to remove ethanol. The volume was then fixed to a certain volume with PBS. Finally, the LNPs were filtered through a 0.2 μm sterile filter to obtain an LNP preparation encapsulating Fluc-mRNA using YK-009/DSPC/cholesterol/DMG-PEG2000 (at a molar ratio of 49:10:39.5:1.5).
The particle size and polydispersity index (PDI) were determined by dynamic light scattering using a Malvern laser particle size analyzer. 10 μL of the liposome solution was taken, diluted to 1 mL with RNase-free deionized water, and added to a sample pool. Each sample was measured in triplicate. The measurement conditions were: a scattering angle of 90° and a temperature of 25° C. The encapsulation efficiency of LNPs was determined using the Quant-iT RiboGreen RNA Quantification Kit (Thermo Fisher Scientific, UK) according to the manufacturer's instructions.

The target in data set [2] is T2, T7 RNA polymerase (Escherichia phage T7, UniProt P00573). Kind of data set: In vitro transcription yield of mRNA using cap analogs. The format is biochemical. The settings on record: for Yield per unit template: in vitro transcription, 1 μg DNA template, 37° C., 2 hours. The method, then:
• (1) Capping synthesis using cap analogs
The plasmid was first linearized with plasmid linearizing enzyme, and then the linearized plasmid was purified. • (2) In vitro transcription and synthesis of mRNA
(§1) During the experiment, the volume of materials required for the system was first calculated, and then sample addition was conducted. The system was first added with sterile enzyme-free water, followed by the sequential addition of 10× buffer, NTPs, and cap analogs, mixed well, and gently centrifuged. Nuclease inhibitors, inorganic pyrophosphatase, T7RNA polymerase, and linearized DNA templates were then added thereto. The system was mixed well, gently centrifuged, and incubated at 37° C. After 2 hours of incubation, the system was added with 1 U of DNase I and incubated at 37° C. for another 30 minutes. The mRNA precipitate was then washed with 75% ethanol, and after the ethanol was briefly evaporated to dryness, the mRNA was redissolved in sterile enzyme-free water. • (3) The transcription product was purified, and the in vitro transcription yield of mRNA was recorded. • (4) The obtained mRNA was subjected to an annealing reaction with a probe.

In the next data set the test system is HEK293T cells. The data set is described as follows: Translation efficiency of different capped luciferase mRNAs. The format is cell-based. The settings on record: for Multiple of m6A (relative fluorescence intensity): relative to m6A; for Relative fluorescence intensity: HEK293T, 0.5 μg mRNA per well, 24 hours, proportional to translation efficiency. Here is the method: • (1) HEK293T cells were cultured in DMEM medium containing 10% FBS and penicillin/streptomycin at 37° C. with 5% CO2. • (2)Cells in the culture dish were digested and counted, then spread in a 96-well plate at 10,000 cells per well, and cultured overnight until the cells adhered to the wall. • (3) When the cell density reached approximately 80%, transfection was performed by adding 0.5 μg of mRNA sample and Lipofectamine MessengerMAX Transfection Reagent (Invitrogen) per well according to the manufacturer's instructions. • (4) After the transfected cells were cultured at 37° C. with 5% CO2 for 24 hours, the growth medium was removed from the cells to be tested, and the cells were rinsed with PBS. After centrifugation to remove PBS, 50 μL of 1× lysis buffer was added. The cells and all liquid were transferred to a microcentrifuge tube and centrifuged. • (5) 20 μL of sample was taken and added to 100 μL of Dual-Lumi™ II Luciferase Assay Reagent pre-equilibrated to room temperature, and mixed appropriately. • (6) The mixture was incubated at room temperature (approximately 25° C.) for 5 minutes to stabilize the luminescence signal. Chemiluminescence was detected using a multifunctional microplate reader with a function for detecting chemiluminescence, and the data were recorded.
The relative fluorescence intensity is proportional to the translation efficiency of mRNA.

Data set [3] deals with T2, T7 RNA polymerase. The data set is described as follows: Capping rate of mRNA transcription initiated by cap analogs (LC-MS). The settings on record: for Capping rate: LC-MS of mRNA 5′ fragment. The format is biochemical. The method, then:
as §1
The annealing reaction was performed in a PCR instrument: 95° C. for 5 minutes; 65° C. for 2 minutes; 55° C. for 2 minutes; 40° C. for 2 minutes; 22° C. for 2 minutes. • (5) Magnetic bead pretreatment and probe binding: 100 μL of magnetic beads was placed on a magnetic frame for pretreatment. The magnetic bead solution was added with 120 μL of sample and incubated at room temperature for 30 minutes with slow mixing. • (6) mRNA splicing and obtaining the mRNA 5′ single-strand sequence bound to the probe
The mixture was added with 20 μL of RNase H (5 U/μL) and incubated at 37° C. for 3 hours with mixing every half hour. After incubation, the magnetic beads were washed and then added with 100 μL of 75% methanol heated to 80° C. The mixture was heated to 80° C. on a heating plate, held for 3 minutes, then placed on a magnetic frame to aspirate the supernatant, and dried at room temperature for 45 minutes to a volume of 10 μL using a centrifugal evaporator. The sample was then resuspended in 50 μL of 100 μM EDTA/1% MeOH and ready for LC-MS analysis to determine the capping of RNA in the transcription reaction. Since there is a significant difference in molecular weight between capped and uncapped bases, the capping rate of mRNA transcription initiated by different cap analogs can be determined based on the difference in molecular mass.

The structures appear in SMILES notation.

T2 sequence (P00573 whole entry): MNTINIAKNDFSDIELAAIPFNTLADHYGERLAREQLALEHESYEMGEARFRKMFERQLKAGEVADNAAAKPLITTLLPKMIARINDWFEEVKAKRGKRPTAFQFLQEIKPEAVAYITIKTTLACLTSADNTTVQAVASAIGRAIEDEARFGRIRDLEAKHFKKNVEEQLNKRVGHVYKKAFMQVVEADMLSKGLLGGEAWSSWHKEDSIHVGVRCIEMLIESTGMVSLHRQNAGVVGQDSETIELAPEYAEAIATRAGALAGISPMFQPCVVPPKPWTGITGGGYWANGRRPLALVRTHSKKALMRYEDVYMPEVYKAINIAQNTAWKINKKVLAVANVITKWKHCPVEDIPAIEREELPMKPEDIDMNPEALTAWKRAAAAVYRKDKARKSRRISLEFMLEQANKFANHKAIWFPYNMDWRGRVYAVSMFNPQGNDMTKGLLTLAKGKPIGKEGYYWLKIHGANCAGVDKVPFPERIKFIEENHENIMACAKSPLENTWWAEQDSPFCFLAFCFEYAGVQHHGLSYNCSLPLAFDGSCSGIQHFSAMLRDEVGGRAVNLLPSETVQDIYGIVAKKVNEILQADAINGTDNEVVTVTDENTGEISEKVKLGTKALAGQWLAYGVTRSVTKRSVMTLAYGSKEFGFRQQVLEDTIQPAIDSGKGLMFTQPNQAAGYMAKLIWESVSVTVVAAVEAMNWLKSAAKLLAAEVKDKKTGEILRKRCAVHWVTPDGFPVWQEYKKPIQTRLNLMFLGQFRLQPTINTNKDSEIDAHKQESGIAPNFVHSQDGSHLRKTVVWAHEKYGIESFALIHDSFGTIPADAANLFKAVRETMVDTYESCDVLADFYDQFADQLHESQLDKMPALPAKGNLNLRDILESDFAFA

In the case of `COC1[C@H](n2cnc3c(N)ncnc32)O[C@H](COP(=O)(O)OP(=O)(O)OP(=O)(O)OC[C@@]23COC([C@H]([n+]4cn(C)c5c(=O)[nH]c(N)nc54)O2)[C@H]3O)[C@H]1OP(=O)(O)OCC1OC(n2cnc3c(=O)[nH]c(N)nc32)C(O)C1O` (stereo partly drawn) [Compound 14, reference compound], at DCP2 enzyme, the “Decapping rate (%) of DCP2 enzyme” value was determined as 26.8% and the “Decrease relative to N-7113 (decapping rate)” value is 17.0%. Moreover, in data set [1], the Particle size is recorded as 79.35 nm, the PDI is 0.073 and the EE is on record as 94.2%. On T7 RNA polymerase [2], the “Yield per unit template” value was 123.2 µg and the “Increase relative to 5227 (in vitro transcription yield)” value is −8.2%. For the same compound, in the data set on HEK293T cells, the “Multiple of m6A (relative fluorescence intensity)” value stood at 2.9. On T7 RNA polymerase [3], the Capping rate turned out to be 78.3% and the “Increase relative to 5227 (capping rate)” value was 8.9%.
For `CO[C@@H]1[C@H](OP(=O)(O)OC[C@H]2O[C@@H](n3cnc4c(=O)[nH]c(N)nc43)[C@H](O)[C@@H]2O)[C@@H](COP(=O)(O)OP(=O)(O)OP(=O)(O)OC[C@H]2OC([n+]3cn(C)c4c(=O)[nH]c(N)nc43)[C@H](NC(C)=O)[C@@H](O)[C@@H]2O)O[C@H]1n1cnc2c(N)ncnc21` (stereo partly drawn) [YK-CAP-102], at DCP2 enzyme, the “Decapping rate (%) of DCP2 enzyme” value amounted to 41.2% and the “Decrease relative to N-7113 (decapping rate)” value came out at 2.6%. In data set [1], the Particle size worked out at 73.22 nm, the PDI was found to be 0.055 and the EE worked out at 95.3%. Moreover, at T7 RNA polymerase [2], the “Yield per unit template” value stood at 44.1 µg and the “Increase relative to 5227 (in vitro transcription yield)” value is recorded as −67.1%. For the same compound, in the data set on HEK293T cells, the Relative fluorescence intensity came out at 0.34 and the “Multiple of m6A (relative fluorescence intensity)” value amounted to 0.9. For the same compound, at T7 RNA polymerase [3], the Capping rate is recorded as 30.2% and the “Increase relative to 5227 (capping rate)” value was −58.0%.
As to `CO[C@@H]1[C@H](OP(=O)(O)OC[C@H]2O[C@@H](n3cnc4c(=O)[nH]c(N)nc43)[C@H](O)[C@@H]2O)[C@@H](COP(=O)(O)OP(=O)(O)OP(=O)(O)OC[C@H]2O[C@@H](C[n+]3cn(C)c4c(=O)[nH]c(N)nc43)[C@H](O)[C@@H]2O)O[C@H]1n1cnc2c(N)ncnc21` [YK-CAP-103], at DCP2 enzyme, the “Decapping rate (%) of DCP2 enzyme” value worked out at 36.5% and the “Decrease relative to N-7113 (decapping rate)” value is 7.3%. In data set [1], this compound showed a Particle size of 67.24 nm, a PDI of 0.053 and an EE of 94.7%. Moreover, on T7 RNA polymerase [2], the “Yield per unit template” value amounted to 88.0 µg and the “Increase relative to 5227 (in vitro transcription yield)” value is on record as −34.4%. Also, in the data set on HEK293T cells, the Relative fluorescence intensity amounted to 0.77 and the “Multiple of m6A (relative fluorescence intensity)” value amounted to 2.0. On T7 RNA polymerase [3], the Capping rate is given as 71.1% and the “Increase relative to 5227 (capping rate)” value is listed as −1.1%.
`CO[C@@H]1[C@H](OP(=O)(O)OC[C@H]2O[C@@H](n3cnc4c(=O)[nH]c(N)nc43)[C@H](O)[C@@H]2O)[C@@H](COP(=O)(O)OP(=O)(O)OP(=O)(O)OC[C@H]2O[C@@H]([n+]3cn(C)c4c(=O)[nH]c(N)nc43)[C@H](O)[C@]2(F)CN(C)C)O[C@H]1n1cnc2c(N)ncnc21` [YK-CAP-104]: on DCP2 enzyme, the “Decapping rate (%) of DCP2 enzyme” value was found to be 46.1% and the “Decrease relative to N-7113 (decapping rate)” value was −2.3%. In data set [1], this compound displayed a Particle size of 69.24 nm, a PDI of 0.047 and an EE of 95.7%. For the same compound, at T7 RNA polymerase [2], the “Yield per unit template” value amounted to 73.2 µg and the “Increase relative to 5227 (in vitro transcription yield)” value was −45.5%. Also, in the data set with HEK293T cells, the Relative fluorescence intensity came to 0.81 and the “Multiple of m6A (relative fluorescence intensity)” value came to 2.1. For the same compound, at T7 RNA polymerase [3], the Capping rate is recorded as 77.2% and the “Increase relative to 5227 (capping rate)” value is recorded as 7.4%.
`CO[C@@H]1[C@H](OP(=O)(O)OC[C@H]2O[C@@H](n3cnc4c(=O)[nH]c(N)nc43)[C@H](O)[C@@H]2O)[C@@H](COP(=O)(O)OP(=O)(O)OP(=O)(O)OC[C@H]2O[C@@H]([n+]3cn(C)c4c(=O)[nH]c(N)nc43)[C@H](O)[C@]2(C)C#N)O[C@H]1n1cnc2c(N)ncnc21` [YK-CAP-105]: at DCP2 enzyme, the “Decapping rate (%) of DCP2 enzyme” value amounted to 33.9% and the “Decrease relative to N-7113 (decapping rate)” value is 9.9%. For the same compound, in data set [1], the Particle size is 77.22 nm, the PDI was found to be 0.063 and the EE worked out at 95.7%. Moreover, on T7 RNA polymerase [2], the “Yield per unit template” value worked out at 82.3 µg and the “Increase relative to 5227 (in vitro transcription yield)” value is reported as −38.7%. In the data set on HEK293T cells, the Relative fluorescence intensity is recorded as 0.72 and the “Multiple of m6A (relative fluorescence intensity)” value worked out at 1.9. Also, on T7 RNA polymerase [3], the Capping rate was 69.3% and the “Increase relative to 5227 (capping rate)” value is listed as −3.6%.
